The values below come from patent EP0076669A1, “Novel 3-phenyl-1-indanamines, pharmaceutical compositions and methods of preparation” (KEFALAS A/S, priority 1981, dated 1983).

One assay has as its system potentiation of 5-HTP. Briefly: 5-HTP potentiation (5-HTP syndrome). The class given is in vivo. To be noted: Mus musculus, ip, 0.5 h; i.p., mice; 5-HTP 100 mg/kg i.v. 30 min after test substance; read-out: 5-HTP potentation,ED50. Here is the method:
The test substance is given i.p. or p.o. in the doses 10, 10, 2.5, 0.63 and 0 mg/kg. Three mice are used for each dose level. One of the groups on the highest dose is used as control of the compounds own effect. […] Thirty minutes after administration of test substance, 5-HTP, 100 mg/kg i.v. is given (injection time 5-10 sec.). After this 5-HTP dose the animals remain unaffected. If the animals have been pretreated with a substance, which inhibits the re-uptake of 5-HT, a 5-HTP syndrome will occur. This is characterized by the following symptoms: 1) excitation, 2) tremor, and 3) abduction of the hind limbs.
After the administration of 5-HTP the animals are observed for 15 minutes and each animal is given one point for each symptom present. Thus, the maximal score for a group consisting of 3 mice is 9.
The results are stated as fractions: 0/9, 1/9, 2/9 ..... 8/9, 9/9, where 0, 1, 2 ..... 8, 9 are the number of points per group after the dose in question.

Assay [1] deals with tetrabenazine induced ptosis. Kind of assay: Tetrabenazine ptosis antagonism. To be noted: Mus musculus, ip, 0.5 h; i.p., mice; tetrabenazine 40 mg/kg i.p. 30 min after test substance. The class given is in vivo. Here is the method: For insoluble substances the doses 0, 1/8, 1/32 and 1/128 of "i.^p. LD50" are used. 3 mice are used for each dose level. Thirty minutes after administration of test substance, tetrabenazine, 40 mg/kg, is injected i.p. Ptosis is evaluated 30 minutes after administration of tetrabenazine, the following rating scale being used: 0 = normal eyes, 1=1/4 closed eyes, 2 = 1/2 closed eyes, 3 = 3/4 closed eyes and 4 = completely closed eyes. Ptosis is evaluated 30 seconds after tilting the cage 3 times. The tilting is carried out in such a way that the animals slide along the floor of the cage.
The results are recorded as % inhibition of ptotic score calculated on the basis of the score of the control group. If ptotic score for the control group is < 10 the test is rejected and another is performed. The registration can also be done as an on line procedure.

Where a name gives a salt, the structure may show the parent alone. Bounds are passed on as bounds.

`CN[C@@H]1C[C@H](c2ccc(Cl)cc2)c2ccccc21` (relative stereo) [Lu 19-120-c]: the ED50 in the assay on potentiation of 5-HTP is 23 µmol/kg; in assay [1], greater than 34 µmol/kg.
Turning to `CN(C)[C@@H]1C[C@@H](c2ccc(Cl)cc2)c2ccccc21` (relative stereo) [Lu 19-121], the ED50 stood at 18 µmol/kg with potentiation of 5-HTP and 66 µmol/kg in assay [1].
With `CN(C)[C@@H]1C[C@H](c2ccc(Cl)cc2)c2ccccc21` (relative stereo) [Lu 19-124], the ED50 with potentiation of 5-HTP worked out at 109 µmol/kg; in assay [1], 43 µmol/kg.
Turning to `CN[C@@H]1C[C@@H](c2ccc(Cl)c(Cl)c2)c2ccc(F)cc21` (relative stereo) [Lu 19-136-c], the ED50 in the assay on potentiation of 5-HTP stood at 27 µmol/kg; in assay [1] it was 33 µmol/kg.
On the same counts, the results for `CN[C@@H]1C[C@H](c2ccc(Cl)c(Cl)c2)c2ccc(F)cc21` (relative stereo) [Lu 19-137-c] are 34 µmol/kg and 15 µmol/kg.
For `CN(C)[C@@H]1C[C@@H](c2ccc(Cl)c(Cl)c2)c2ccc(F)cc21` (relative stereo) [Lu 19-143-c], the figures for the ED50 (in the assay with potentiation of 5-HTP; in assay [1]) were 14 µmol/kg and greater than 111 µmol/kg, respectively.
Take `CN(C)[C@@H]1C[C@H](c2ccc(Cl)c(Cl)c2)c2ccc(F)cc21` (relative stereo) [Lu 19-144-c]: the ED50 in the assay on potentiation of 5-HTP is 29 µmol/kg; in assay [1], greater than 111 µmol/kg.
On the same counts, the results for `CN[C@@H]1C[C@@H](c2ccc(Cl)c(Cl)c2)c2ccc(OC)cc21` (relative stereo) [Lu 20-015-o] are 14 µmol/kg and 7 µmol/kg.
For `CN[C@@H]1C[C@H](c2ccc(Cl)c(Cl)c2)c2ccc(OC)cc21` (relative stereo) [Lu 20-016-o], the ED50 in the assay with potentiation of 5-HTP was determined as 3 µmol/kg; in assay [1], 14 µmol/kg.
On the same counts, the results for `CN[C@@H]1C[C@H](c2ccc(Cl)c(Cl)c2)c2ccc(O)cc21` (relative stereo) [Lu 20-030] are 59 µmol/kg and 15 µmol/kg.
On the same counts, the results for `CN(C)[C@@H]1C[C@@H](c2ccc(Cl)c(Cl)c2)c2ccc(O)cc21` (relative stereo) [Lu 20-031-b, trans N,N-dimethyl-3-(3,4-dichlorophenyl)-6-hydroxy-1-indanamine, hydrobromide] are 18 µmol/kg and 97 µmol/kg.
For `COc1ccc2c(c1)[C@H](N(C)C)C[C@H]2c1ccc(Cl)c(Cl)c1` (relative stereo) [Lu 20-049-o] the same measures were 37 µmol/kg and 5.9 µmol/kg.
For `CN(C)CCCC1(c2ccc(F)cc2)OCc2cc(C#N)ccc21` (centres unmarked) [Citalo-pram, reference compound], the median effective dose (ED50) in the assay with potentiation of 5-HTP worked out at 3.3 µmol/kg; in assay [1], 20 µmol/kg.
For `CNC1CC(c2ccc(F)cc2)c2ccc(F)cc21` (centres unmarked) [Lu 13-164-o] the same measures were 57 µmol/kg and 22 µmol/kg.
Consider `Clc1ccc(C2CC(NCc3ccccc3)c3ccccc32)cc1Cl` (centres unmarked) [Lu 19-072-c], for which the ED50 (in the assay on potentiation of 5-HTP; in assay [1]) was greater than 99 µmol/kg each time.
With `OCCNC1CC(c2ccc(Cl)c(Cl)c2)c2ccccc21` (centres unmarked) [Lu 19-073-c], the ED50 (with potentiation of 5-HTP; in assay [1]) was greater than 111 µmol/kg in each case.
For the compound `Clc1ccc(C2CC(NCCc3ccccc3)c3ccccc32)cc1Cl` (centres unmarked) [Lu 19-079-o], the 50% effective dose (ED50) (in the assay on potentiation of 5-HTP; in assay [1]) was greater than 85 µmol/kg throughout.
With `CNC1CC(c2ccc(F)c(Cl)c2)c2ccccc21` (centres unmarked) [Lu 19-086-c], the ED50 in the assay on potentiation of 5-HTP came out at 30 µmol/kg; in assay [1] it was 32 µmol/kg.
For `CNC1CC(c2ccc(F)cc2)c2ccc(C)cc21` (centres unmarked) [Lu 19-091-c] the same measures were 55 µmol/kg and greater than 137 µmol/kg.
Consider `CN(C)C1CC(c2ccc(F)c(F)c2)c2ccccc21` (centres unmarked) [Lu 19-096-c], for which the 50% effective dose (ED50) in the assay with potentiation of 5-HTP worked out at 42 µmol/kg; in assay [1], 13 µmol/kg.
For `CN(C)C1CC(O)(c2ccc(F)c(Cl)c2)c2ccccc21` (centres unmarked) [Lu 19-114, N,N-dimethyl-3-(3-chloro-4-fluorophenyl)-3-hydroxy-1-indanamine], the median effective dose (ED50) in the assay on potentiation of 5-HTP came to 26 µmol/kg; in assay [1], 14 µmol/kg.
As for `COc1ccc2c(c1)C(N(C)C)CC2c1ccc(Cl)c(Cl)c1` (centres unmarked) [Lu 20-050], the ED50 came out at 26 µmol/kg in the assay with potentiation of 5-HTP and 119 µmol/kg in assay [1].
